Measurements published in PubChem BioAssay (NCI).
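Assay format: 96-well plates, 48-hour exposure. TGI marks complete inhibition of growth.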

Tests used:
Assay in all cases: NCI tumour cell line growth inhibition, 48 h
RPMI-8226 leukemia = test system: RPMI-8226 leukemia
HOP-92 NSCLC = test system: HOP-92 NSCLC
NCI-H522 lung = test system: NCI-H522 lung
TK-10 renal = test system: TK-10 renal
SK-MEL-2 melanoma = test system: SK-MEL-2 melanoma
SK-MEL-28 melanoma = test system: SK-MEL-28 melanoma
786-0 renal = test system: 786-0 renal
SF-539 CNS = test system: SF-539 CNS
A549 NSCLC = test system: A549 NSCLC
SNB-75 CNS = test system: SNB-75 CNS
CCRF-CEM leukemia = test system: CCRF-CEM leukemia
NCI-H460 lung = test system: NCI-H460 lung
UACC-62 melanoma = test system: UACC-62 melanoma
MDA-MB-435 = test system: MDA-MB-435
EKVX NSCLC = test system: EKVX NSCLC
MDA-MB-231 breast = test system: MDA-MB-231 breast
SF-268 CNS = test system: SF-268 CNS

Row | Structure (SMILES) | TGI (RPMI-8226 leukemia) | TGI (HOP-92 NSCLC) | TGI (NCI-H522 lung) | TGI (TK-10 renal) | TGI (SK-MEL-2 melanoma) | TGI (SK-MEL-28 melanoma) | TGI (786-0 renal) | TGI (SF-539 CNS) | TGI (A549 NSCLC) | TGI (SNB-75 CNS) | TGI (CCRF-CEM leukemia) | TGI (NCI-H460 lung) | TGI (UACC-62 melanoma) | TGI (MDA-MB-435) | TGI (EKVX NSCLC) | TGI (MDA-MB-231 breast) | TGI (SF-268 CNS)
1 | COc1ccccc1-n1c(N)c2c(C)c(-c3ccccc3)[nH]c2nc1=S | > 100 µM | > 100 µM | > 100 µM | > 100 µM | > 100 µM | > 100 µM | > 100 µM | > 100 µM | > 100 µM | > 100 µM | > 100 µM | > 100 µM | > 100 µM | – | – | – | –
2 | COc1cc(C2c3cc4c(cc3OC(NCCc3ccccc3)C2C)OCO4)cc(OC)c1OC (stereo not drawn) | 14.7 µM | 63.3 µM | 0.779 µM | > 100 µM | > 42.1 µM | > 100 µM | 18.1 µM | 1.23 µM | > 90.4 µM | 0.488 µM | > 62.3 µM | > 52.1 µM | 35.3 µM | 2.18 µM | > 94 µM | 1.02 µM | > 39.3 µM
3 | COc1cc2c(cc1O)CN1CCC23C=C[C@@H](O)CC13 (stereo partly drawn) | > 100 µM | > 100 µM | > 100 µM | > 100 µM | > 100 µM | > 100 µM | > 100 µM | – | > 100 µM | > 100 µM | 81.3 µM | > 100 µM | > 100 µM | – | > 100 µM | – | > 100 µM
4 | CCN(CC)CCC1(C2CCCCC2)CCC(=O)NC1=O (stereo not drawn) | > 100 µM | – | > 100 µM | > 100 µM | > 100 µM | > 100 µM | > 100 µM | > 100 µM | > 100 µM | > 100 µM | > 100 µM | > 100 µM | > 100 µM | – | > 100 µM | – | > 100 µM
5 | CCOC(=O)C(/C(=N\NC(=O)OC)C(=O)Nc1cc(OC)ccc1OC)c1cnc2ccccc2n1 (stereo not drawn) | > 100 µM | > 100 µM | > 100 µM | > 100 µM | – | > 100 µM | > 100 µM | > 100 µM | > 100 µM | > 100 µM | > 100 µM | > 100 µM | > 100 µM | – | > 100 µM | – | > 100 µM
6 | COc1cc(C2C(C(=O)Nc3ccc([N+](=O)[O-])cc3)=C(C)NC(C)=C2C(=O)Nc2ccc([N+](=O)[O-])cc2)ccc1O | 59.6 µM | 57 µM | 39.7 µM | 68.7 µM | 34.7 µM | 31.3 µM | > 100 µM | 41.1 µM | > 100 µM | > 86.3 µM | > 100 µM | > 62.1 µM | 42 µM | – | > 100 µM | – | > 72.6 µM
7 | CCOc1ccc(/C=C(\Cl)c2ccc(OC)cc2)cc1 | > 100 µM | > 100 µM | > 100 µM | – | – | > 100 µM | > 100 µM | > 100 µM | > 100 µM | > 100 µM | > 100 µM | – | > 100 µM | – | > 100 µM | – | > 100 µM
8 | C[C@@H]1OC2(O)[C@H]3CCCN3S(=O)(=O)CCN2C1=O (stereo partly drawn) | > 100 µM | > 100 µM | > 100 µM | > 100 µM | – | > 100 µM | > 100 µM | > 100 µM | > 100 µM | > 100 µM | > 100 µM | > 100 µM | > 100 µM | – | > 100 µM | – | > 100 µM
